Publication PMC10899635, “Q586B2 is a crucial virulence factor during the early stages of Trypanosoma brucei infection that is conserved amongst trypanosomatids” (Nature Communications, 2024)

Tests used:
rmMIF = molecular target: T1, rmMIF (Mus musculus, UniProt P34884); assay: dopachrome methyl ester tautomerase assay, OD475 nm; type: biochemical; settings: 83.3 nM protein preincubated 1 h at 37 °C with 10 µM ISO-1; pH 6.0, 25 °C
T1 construct: gene Mif; commercial recombinant (R&D systems); trimer

Q586B2 = molecular target: T2, Q586B2 (Trypanosoma brucei, UniProt Q586B2); assay: as above; type: biochemical; settings: 83.3 nM protein; 50 mM potassium phosphate, 1 mM EDTA, pH 6.0, 25 °C
T2 construct: gene Tb06.4F7.140; full length, 115 aa, 13 kDa; N-terminal His6- and FLAG-tag (removable); codon-optimized, E. coli WK6
T2 sequence (Q586B2 entry or part of it): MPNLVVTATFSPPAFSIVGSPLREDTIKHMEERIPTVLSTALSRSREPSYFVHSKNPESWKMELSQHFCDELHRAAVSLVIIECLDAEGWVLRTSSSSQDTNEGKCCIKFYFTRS

T1 sequence (P34884 2-115): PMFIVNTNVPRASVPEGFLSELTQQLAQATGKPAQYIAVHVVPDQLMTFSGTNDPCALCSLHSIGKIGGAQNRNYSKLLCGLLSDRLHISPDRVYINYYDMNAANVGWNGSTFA

SMILES	% tautomerase activity with 10 μM ISO-1 (rmMIF)	% tautomerase activity of rmMIF (Q586B2)
COC(=O)CC1CC(c2ccc(O)cc2)=NO1 (centres unmarked) [ISO-1]	contrast to MIF, the Q586B2 tautomerase activity was not inhibited by the small molecule ISO-1	–
COC(=O)[C@@H]1CC2=CC(=O)C(=O)C=C2N1 [dopachrome methyl ester]	–	Q586B2 indeed exhibited a moderate tautomerase activity
